Source: ChEMBL document CHEMBL5055643, “Sophoraflavanone G Resensitizes ABCG2-Overexpressing Multidrug-Resistant Non-Small-Cell Lung Cancer Cells to Chemotherapeutic Drugs” (J Nat Prod, 2021)

Tests used:
NCI-H460 [1] = experiment: Chemo-sensitizing activity against human NCI-H460 cells assessed as reversal fold at 2 uM measured after 72 hrs in presence of topotecan by CCK8 assay relative to control; type: functional
NCI-H460 [2] = experiment: Chemo-sensitizing activity against mitoxantrone-selected ABCG2-overexpressing human NCI-H460/MX20 cells assessed as reversal fold at 1 uM measured after 72 hrs in presence of topotecan by CCK8 assay relative to control; type: functional
NCI-H460 [3] = experiment: Chemo-sensitizing activity against mitoxantrone-selected ABCG2-overexpressing human NCI-H460/MX20 cells assessed as reversal fold at 1 uM measured after 72 hrs in presence of SN-38 by CCK8 assay relative to control; type: functional
NCI/ADR-RES [4] = experiment: Chemo-sensitizing activity against ABCB1-overexpressing human NCI/ADR-RES cells assessed as reversal fold at 2 uM measured after 72 hrs in presence of paclitaxel by CCK8 assay relative to control; type: functional
A549 [5] = experiment: Chemo-sensitizing activity against becatecarin-selected ABCG2-overexpressing human A549/Bec150 cells assessed as reversal fold at 1 uM measured after 72 hrs in presence of mitoxantrone by CCK8 assay relative to control; type: functional
A549 [6] = experiment: Chemo-sensitizing activity against human A549 cells assessed as reversal fold at 2 uM measured after 72 hrs in presence of topotecan by CCK8 assay relative to control; type: functional
A549 [7] = experiment: Chemo-sensitizing activity against human A549 cells assessed as reversal fold at 1 uM measured after 72 hrs in presence of SN-38 by CCK8 assay relative to control; type: functional
A549 [8] = experiment: Chemo-sensitizing activity against human A549 cells assessed as reversal fold at 5 uM measured after 72 hrs in presence of SN-38 by CCK8 assay relative to control; type: functional
A549 [9] = experiment: Chemo-sensitizing activity against becatecarin-selected ABCG2-overexpressing human A549/Bec150 cells assessed as reversal fold at 5 uM measured after 72 hrs in presence of SN-38 by CCK8 assay relative to control; type: functional
HEK293 [10] = experiment: Chemo-sensitizing activity against human HEK293 cells assessed as reversal fold at 2 uM measured after 72 hrs in presence of mitoxatrone by CCK8 assay relative to control; type: functional
HEK293 [11] = experiment: Chemo-sensitizing activity against human HEK293 cells assessed as reversal fold at 1 uM measured after 72 hrs in presence of topotecan by CCK8 assay relative to control; type: functional
HEK293 [12] = experiment: Chemo-sensitizing activity against ABCG2-overexpressing human HEK293/482R cells assessed as reversal fold at 2 uM measured after 72 hrs in presence of SN-38 by CCK8 assay relative to control; type: functional
NCI/ADR-RES [13] = experiment: Chemo-sensitizing activity against ABCB1-overexpressing human NCI/ADR-RES cells assessed as reversal fold at 2 uM measured after 72 hrs in presence of vincristine by CCK8 assay relative to control; type: functional
OVCAR-8 = experiment: Chemo-sensitizing activity against human OVCAR-8 cells assessed as reversal fold at 2 uM measured after 72 hrs in presence of colchicine by CCK8 assay relative to control; type: functional
KB-V1 [14] = experiment: Chemo-sensitizing activity against ABCB1-overexpressing human KB-V1 cells assessed as reversal fold at 1 uM measured after 72 hrs in presence of vincristine by CCK8 assay relative to control; type: functional
KB-V1 [15] = experiment: Chemo-sensitizing activity against ABCB1-overexpressing human KB-V1 cells assessed as reversal fold at 2 uM measured after 72 hrs in presence of vincristine by CCK8 assay relative to control; type: functional
KB 3-1 [16] = experiment: Chemo-sensitizing activity against human KB 3-1 cells assessed as reversal fold at 2 uM measured after 72 hrs in presence of paclitaxel by CCK8 assay relative to control; type: functional
KB 3-1 [17] = experiment: Chemo-sensitizing activity against human KB 3-1 cells assessed as reversal fold at 5 uM measured after 72 hrs in presence of paclitaxel by CCK8 assay relative to control; type: functional
KB 3-1 [18] = experiment: Chemo-sensitizing activity against human KB 3-1 cells assessed as reversal fold at 1 uM measured after 72 hrs in presence of colchicine by CCK8 assay relative to control; type: functional
KB 3-1 [19] = experiment: Chemo-sensitizing activity against human KB 3-1 cells assessed as reversal fold at 2 uM measured after 72 hrs in presence of colchicine by CCK8 assay relative to control; type: functional
KB-V1 [20] = experiment: Chemo-sensitizing activity against ABCB1-oveexpressing human KB-V1 cells assessed as reversal fold at 1 uM measured after 72 hrs in presence of colchicine by CCK8 assay relative to control; type: functional
HEK293 [21] = experiment: Chemo-sensitizing activity against ABCB1-overexpressing human HEK293/MDR19 cells assessed as reversal fold at 1 uM measured after 72 hrs in presence of vincristine by CCK8 assay relative to control; type: functional
HEK293 [22] = experiment: Chemo-sensitizing activity against human HEK293 cells assessed as reversal fold at 2 uM measured after 72 hrs in presence of paclitaxel by CCK8 assay relative to control; type: functional
HEK293 [23] = experiment: Chemo-sensitizing activity against ABCB1-overexpressing human HEK293/MDR19 cells assessed as reversal fold at 2 uM measured after 72 hrs in presence of colchicine by CCK8 assay relative to control; type: functional
[24] = target: T1, Broad substrate specificity ATP-binding cassette transporter ABCG2 (Homo sapiens, UniProt Q9UNQ0); experiment: Inhibition of ABCG2 in becatecarin-selected ABCG2-overexpressing human A549/Bec150 cells assessed as increase in intracellular mitoxantrone accumulation incubated for 1 hr in presence of mitoxantrone by flow cytometry; type: cell-based
T1 sequence (Q9UNQ0 whole entry): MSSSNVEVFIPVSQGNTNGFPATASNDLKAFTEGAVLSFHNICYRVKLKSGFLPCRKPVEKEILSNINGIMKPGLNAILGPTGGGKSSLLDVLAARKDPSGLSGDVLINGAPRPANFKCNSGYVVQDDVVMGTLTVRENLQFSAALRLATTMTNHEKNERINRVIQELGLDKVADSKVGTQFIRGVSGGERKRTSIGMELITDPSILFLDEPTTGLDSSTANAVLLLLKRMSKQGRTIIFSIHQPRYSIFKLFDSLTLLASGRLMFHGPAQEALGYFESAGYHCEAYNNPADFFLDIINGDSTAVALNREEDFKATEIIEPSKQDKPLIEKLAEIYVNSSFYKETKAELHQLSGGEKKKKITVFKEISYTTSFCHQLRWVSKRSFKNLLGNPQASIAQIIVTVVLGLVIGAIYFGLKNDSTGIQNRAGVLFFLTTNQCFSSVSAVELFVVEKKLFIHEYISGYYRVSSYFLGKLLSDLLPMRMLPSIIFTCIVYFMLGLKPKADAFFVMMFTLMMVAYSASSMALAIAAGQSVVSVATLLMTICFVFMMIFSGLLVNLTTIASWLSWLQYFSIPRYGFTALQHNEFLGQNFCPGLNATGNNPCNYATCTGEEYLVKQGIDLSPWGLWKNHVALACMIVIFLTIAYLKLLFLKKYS

[25] = Cytotoxicity against human NCI-H460 cells assessed as cell viability at 1 to 5 uM measured after 72 hrs by CCK8 assay; type: cell-based; details: dose 1-5 µM, read-out: Activity

SMILES: C=C(C)[C@H](CC=C(C)C)Cc1c(O)cc(O)c2c1O[C@H](c1ccc(O)cc1O)CC2=O [SOPHORAFLAVANONE G]
- fold change (FC) (NCI-H460 [1]): 2.1
- fold change (FC) (NCI-H460 [2]): 4.1
- fold change (FC) (NCI-H460 [3]): 2.6
- fold change (FC) (NCI/ADR-RES [4]): 1.1
- fold change (FC) (A549 [5]): 2.7
- fold change (FC) (A549 [6]): 1.2
- fold change (FC) (A549 [7]): 1
- fold change (FC) (A549 [8]): 1.2
- fold change (FC) (A549 [9]): 7.7
- fold change (FC) (HEK293 [10]): 0.9
- fold change (FC) (HEK293 [11]): 0.9
- fold change (FC) (HEK293 [12]): 2.4
- fold change (FC) (NCI/ADR-RES [13]): 1
- fold change (FC) (OVCAR-8): 1
- fold change (FC) (KB-V1 [14]): 1
- fold change (FC) (KB-V1 [15]): 1.1
- fold change (FC) (KB 3-1 [16]): 1.1
- fold change (FC) (KB 3-1 [17]): 1.1
- fold change (FC) (KB 3-1 [18]): 1
- fold change (FC) (KB 3-1 [19]): 1.1
- fold change (FC) (KB-V1 [20]): 0.9
- fold change (FC) (HEK293 [21]): 0.7
- fold change (FC) (HEK293 [22]): 1
- fold change (FC) (HEK293 [23]): 0.8
- IC50 [24]: 2.29 µM
- inhibition (INH) ([24]; human, a549, 1 h, time 1 hrs): Dose-dependent effect
- viability at 72 h, 5 µM [25]: > 90%
